Experiments:
[1] = Blood chemistries and liver biopsies under amiodarone/itraconazole, monkeys
[2] = Blood chemistries and liver biopsies under amiodarone/itraconazole, dogs
[3] = cited from earlier work
[4] = in vivo
Experimental: Accordingly, prior to additional testing, a dosage of Itraconazole and Amiodarone was prepared in accordance with the above example, but with nanomilling of the Itraconazole before formulating into pharmaceutical compositions and administration to patients. In this example, a suspension of itraconazole was prepared and then subject to milling using a media mill such as disclosed in Kumar et al., J. Pharm. Sci. 104:3018-3028 (2015), wherein Itraconazole (1%, w/v) was suspended in a desired concentration of an aqueous stabilizer solution, and the prepared suspension was stirred for 30 minutes or more for complete wetting of the drug by the stabilizer solution. The suspension (e.g., 150 mL) was then wet milled or wet grinded using a conventional wet milling or grinding device, namely one manufactured by Netzsch of Exton, Pa. Using this equipment, the mill is operated at a suitable speed, e.g., 2500 rpm in a continuous mode for a time suitable to reduce particle size to a range of 1 and 400 nm, e.g., 75 minutes. The temperature of the sample was maintained at below 25° C. during the process, and two cooling bath recirculators were used, including one attached to the milling device and the other attached to suspension recirculation chambers. […]

[5] = increase from 5 mg/kg to 10 mg/kg once daily; cited from earlier work
[6] = in vivo; details: human

SMILES	arrythmias [1]	hepatic effects (multiple blood chemistries) [1]	arrythmias [2]	hepatic effects (multiple blood chemistries) [2]	Itraconazole plasma level when given with food compared with without food [3]	increase of bioavailability of itraconazole [4] [%]	Itraconazole Cmax increase [5]	Cmax ([6]; 5 mg/kg) [ng/mL]	increase in plasma Itraconazole level compared with the Cmax of a previous study (Paniz-Mondolfi et al. 2009) ([6]; 10 mg/kg)	Cmax ([6]; po, 10 mg/kg) [ng/mL]
CCCCc1oc2ccccc2c1C(=O)c1cc(I)c(OCCN(CC)CC)c(I)c1 [Amiodarone]	0	0	0	0	–	–	–	–	–	–
CCC(C)n1ncn(-c2ccc(N3CCN(c4ccc(OCC5COC(Cn6cncn6)(c6ccc(Cl)cc6Cl)O5)cc4)CC3)cc2)c1=O (stereo not shown) [Itraconazole]	–	–	–	–	higher	2000	5-6 fold	3550	5-6 fold	13500
